# Species: Rattus norvegicus
# Test: DrugMatrix - Regimen: Daily Repeat
# Type: toxicity, organism-based, Sprague-Dawley
# Parameters: regimen Daily Repeat, gender Male, age 6-8 weeks
# Conditions: in vivo, po, route oral GAVAGE, vehicle .5 % CMC; for ABSOLUTE BASOPHIL / ABSOLUTE EOSINOPHIL / ABSOLUTE LYMPHOCYTE / ABSOLUTE MONOCYTE / ABSOLUTE SEGMENTED NEUTROPHIL / BASOPHIL / EOSINOPHIL / ERYTHROCYTE COUNT / HEMATOCRIT / HEMOGLOBIN / LEUKOCYTE COUNT / LYMPHOCYTE / MEAN CORPUSCULAR HEMOGLOBIN / MEAN CORPUSCULAR HEMOGLOBIN CONCENTRATION / MEAN CORPUSCULAR VOLUME / MONOCYTE / NEUTROPHIL / NUCLEATED RED BLOOD CELLS / PLATELET COUNT: tissue Blood; for ALANINE AMINOTRANSFERASE / ALBUMIN / ALKALINE PHOSPHATASE / ASPARTATE AMINOTRANSFERASE / BLOOD UREA NITROGEN / CARBON DIOXIDE / CHLORIDE / CHOLESTEROL / CREATINE PHOSPHOKINASE / CREATININE / GLUCOSE / LACTATE DEHYDROGENASE / LIPASE / PHOSPHORUS / POTASSIUM / SODIUM / TOTAL BILIRUBIN / TOTAL PROTEIN / URIC ACID: tissue Plasma
# [1] = 25 mg/kg, 72 h, dose level Low, time 3 day
# [2] = 25 mg/kg, 120 h, dose level Low, time 5 day
# [3] = 1500 mg/kg, 72 h, dose level High, time 3 day
# [4] = 1500 mg/kg, 120 h, dose level High, time 5 day
compound,measurement,setting,value
Cc1ccc(S(=O)(=O)NC(=O)NN2CCCCCC2)cc1 [TOLAZAMIDE],ABSOLUTE BASOPHIL,[1],0 CELLS/uL
same,ABSOLUTE EOSINOPHIL,[1],281.67 CELLS/uL
same,ABSOLUTE LYMPHOCYTE,[1],14664 CELLS/uL
same,ABSOLUTE MONOCYTE,[1],321 CELLS/uL
same,ABSOLUTE SEGMENTED NEUTROPHIL,[1],2033.33 CELLS/uL
same,BASOPHIL,[1],0%
same,EOSINOPHIL,[1],1.67%
same,ERYTHROCYTE COUNT,[1],5.23 x10E6/uL
same,HEMATOCRIT,[1],32.97%
same,HEMOGLOBIN,[1],12.7 G/DL
same,LEUKOCYTE COUNT,[1],17.3 x10E3/uL
same,LYMPHOCYTE,[1],85%
same,MEAN CORPUSCULAR HEMOGLOBIN,[1],24.27 pg
same,MEAN CORPUSCULAR HEMOGLOBIN CONCENTRATION,[1],38.53 G/DL
same,MEAN CORPUSCULAR VOLUME,[1],63 fL
same,MONOCYTE,[1],2%
same,NEUTROPHIL,[1],11.33%
same,NUCLEATED RED BLOOD CELLS,[1],0 /100WBC
same,PLATELET COUNT,[1],1363.33 x10E3/uL
same,ALANINE AMINOTRANSFERASE,[1],47.33 u/L
same,ALBUMIN,[1],4.3 G/DL
same,ALKALINE PHOSPHATASE,[1],373.67 u/L
same,ASPARTATE AMINOTRANSFERASE,[1],73.33 u/L
same,BLOOD UREA NITROGEN,[1],13.33 mg/dL
same,CARBON DIOXIDE,[1],22 mmol/L
same,CHLORIDE,[1],102.33 MEQ/L
same,CHOLESTEROL,[1],62.67 mg/dL
same,CREATINE PHOSPHOKINASE,[1],209.33 u/L
same,CREATININE,[1],0.17 mg/dL
same,GLUCOSE,[1],152.33 mg/dL
same,LACTATE DEHYDROGENASE,[1],265 u/L
same,LIPASE,[1],9 u/L
same,PHOSPHORUS,[1],13.13 mg/dL
same,POTASSIUM,[1],7.02 MEQ/L
same,SODIUM,[1],143.5 MEQ/L
same,TOTAL BILIRUBIN,[1],0.17 mg/dL
same,TOTAL PROTEIN,[1],5.3 G/DL
same,URIC ACID,[1],1.97 mg/dL
same,ABSOLUTE BASOPHIL,[2],0 CELLS/uL
same,ABSOLUTE EOSINOPHIL,[2],87.33 CELLS/uL
same,ABSOLUTE LYMPHOCYTE,[2],13745 CELLS/uL
same,ABSOLUTE MONOCYTE,[2],575.67 CELLS/uL
same,ABSOLUTE SEGMENTED NEUTROPHIL,[2],1458.67 CELLS/uL
same,BASOPHIL,[2],0%
same,EOSINOPHIL,[2],0.67%
same,ERYTHROCYTE COUNT,[2],6.16 x10E6/uL
same,HEMATOCRIT,[2],38.13%
same,HEMOGLOBIN,[2],13.9 G/DL
same,LEUKOCYTE COUNT,[2],15.87 x10E3/uL
same,LYMPHOCYTE,[2],86.67%
same,MEAN CORPUSCULAR HEMOGLOBIN,[2],22.6 pg
same,MEAN CORPUSCULAR HEMOGLOBIN CONCENTRATION,[2],36.47 G/DL
same,MEAN CORPUSCULAR VOLUME,[2],61.93 fL
same,MONOCYTE,[2],3.67%
same,NEUTROPHIL,[2],9%
same,NUCLEATED RED BLOOD CELLS,[2],0 /100WBC
same,PLATELET COUNT,[2],1264.67 x10E3/uL
same,ALANINE AMINOTRANSFERASE,[2],46.67 u/L
same,ALBUMIN,[2],4.3 G/DL
same,ALKALINE PHOSPHATASE,[2],296.33 u/L
same,ASPARTATE AMINOTRANSFERASE,[2],92.67 u/L
same,BLOOD UREA NITROGEN,[2],17.33 mg/dL
same,CARBON DIOXIDE,[2],23.67 mmol/L
same,CHLORIDE,[2],109.33 MEQ/L
same,CHOLESTEROL,[2],61.67 mg/dL
same,CREATINE PHOSPHOKINASE,[2],320 u/L
same,CREATININE,[2],0.19 mg/dL
same,GLUCOSE,[2],152.33 mg/dL
same,LACTATE DEHYDROGENASE,[2],425.33 u/L
same,LIPASE,[2],9 u/L
same,PHOSPHORUS,[2],11.2 mg/dL
same,POTASSIUM,[2],5.71 MEQ/L
same,SODIUM,[2],148.83 MEQ/L
same,TOTAL BILIRUBIN,[2],0.17 mg/dL
same,TOTAL PROTEIN,[2],6.13 G/DL
same,URIC ACID,[2],1.27 mg/dL
same,ABSOLUTE BASOPHIL,[3],0 CELLS/uL
same,ABSOLUTE EOSINOPHIL,[3],0 CELLS/uL
same,ABSOLUTE LYMPHOCYTE,[3],13270.33 CELLS/uL
same,ABSOLUTE MONOCYTE,[3],328.33 CELLS/uL
same,ABSOLUTE SEGMENTED NEUTROPHIL,[3],801.33 CELLS/uL
same,BASOPHIL,[3],0%
same,EOSINOPHIL,[3],0%
same,ERYTHROCYTE COUNT,[3],5.57 x10E6/uL
same,HEMATOCRIT,[3],35.93%
same,HEMOGLOBIN,[3],13.3 G/DL
same,LEUKOCYTE COUNT,[3],14.4 x10E3/uL
same,LYMPHOCYTE,[3],92%
same,MEAN CORPUSCULAR HEMOGLOBIN,[3],23.9 pg
same,MEAN CORPUSCULAR HEMOGLOBIN CONCENTRATION,[3],37.03 G/DL
same,MEAN CORPUSCULAR VOLUME,[3],64.5 fL
same,MONOCYTE,[3],2.33%
same,NEUTROPHIL,[3],5.67%
same,NUCLEATED RED BLOOD CELLS,[3],0 /100WBC
same,PLATELET COUNT,[3],1235.33 x10E3/uL
same,ALANINE AMINOTRANSFERASE,[3],26.33 u/L
same,ALBUMIN,[3],4.3 G/DL
same,ALKALINE PHOSPHATASE,[3],233.33 u/L
same,ASPARTATE AMINOTRANSFERASE,[3],69 u/L
same,BLOOD UREA NITROGEN,[3],17.67 mg/dL
same,CARBON DIOXIDE,[3],25 mmol/L
same,CHLORIDE,[3],106.33 MEQ/L
same,CHOLESTEROL,[3],46.67 mg/dL
same,CREATINE PHOSPHOKINASE,[3],172 u/L
same,CREATININE,[3],0.18 mg/dL
same,GLUCOSE,[3],142 mg/dL
same,LACTATE DEHYDROGENASE,[3],80.67 u/L
same,LIPASE,[3],8 u/L
same,PHOSPHORUS,[3],9.5 mg/dL
same,POTASSIUM,[3],5.38 MEQ/L
same,SODIUM,[3],145.4 MEQ/L
same,TOTAL BILIRUBIN,[3],0.27 mg/dL
same,TOTAL PROTEIN,[3],5.8 G/DL
same,URIC ACID,[3],1.07 mg/dL
same,ABSOLUTE BASOPHIL,[4],0 CELLS/uL
same,ABSOLUTE EOSINOPHIL,[4],47.67 CELLS/uL
same,ABSOLUTE LYMPHOCYTE,[4],13177.33 CELLS/uL
same,ABSOLUTE MONOCYTE,[4],515.33 CELLS/uL
same,ABSOLUTE SEGMENTED NEUTROPHIL,[4],1493 CELLS/uL
same,BASOPHIL,[4],0%
same,EOSINOPHIL,[4],0.33%
same,ERYTHROCYTE COUNT,[4],6.17 x10E6/uL
same,HEMATOCRIT,[4],38.2%
same,HEMOGLOBIN,[4],14.3 G/DL
same,LEUKOCYTE COUNT,[4],15.23 x10E3/uL
same,LYMPHOCYTE,[4],86.67%
same,MEAN CORPUSCULAR HEMOGLOBIN,[4],23.2 pg
same,MEAN CORPUSCULAR HEMOGLOBIN CONCENTRATION,[4],37.47 G/DL
same,MEAN CORPUSCULAR VOLUME,[4],61.93 fL
same,MONOCYTE,[4],3.33%
same,NEUTROPHIL,[4],9.67%
same,NUCLEATED RED BLOOD CELLS,[4],0 /100WBC
same,PLATELET COUNT,[4],1206.33 x10E3/uL
same,ALANINE AMINOTRANSFERASE,[4],28 u/L
same,ALBUMIN,[4],4.7 G/DL
same,ALKALINE PHOSPHATASE,[4],319.67 u/L
same,ASPARTATE AMINOTRANSFERASE,[4],70.67 u/L
same,BLOOD UREA NITROGEN,[4],19 mg/dL
same,CARBON DIOXIDE,[4],25.33 mmol/L
same,CHLORIDE,[4],105.33 MEQ/L
same,CHOLESTEROL,[4],58.33 mg/dL
same,CREATINE PHOSPHOKINASE,[4],168.67 u/L
same,CREATININE,[4],0.2 mg/dL
same,GLUCOSE,[4],138.67 mg/dL
same,LACTATE DEHYDROGENASE,[4],114 u/L
same,LIPASE,[4],9.33 u/L
same,PHOSPHORUS,[4],13.07 mg/dL
same,POTASSIUM,[4],6.1 MEQ/L
same,SODIUM,[4],149.93 MEQ/L
same,TOTAL BILIRUBIN,[4],0.2 mg/dL
same,TOTAL PROTEIN,[4],6.57 G/DL
same,URIC ACID,[4],2.17 mg/dL

# — ChEMBL document CHEMBL3885881, “DrugMatrix”
